From patent US7329510B2, “Full length human HCN1Ih channel subunit and variants” (N.V. Organon, priority 2000, dated 2008)

Biological target: T1, human HCN1 channel (Homo sapiens, UniProt O60741, S680F)
T1 construct: Effect of ZD 7288 (100 micromolar) on hHCN1 (full-length) currents; expressed in transfected cells; host or cells: HEK 293F
T1 sequence (O60741 1-890 S680F): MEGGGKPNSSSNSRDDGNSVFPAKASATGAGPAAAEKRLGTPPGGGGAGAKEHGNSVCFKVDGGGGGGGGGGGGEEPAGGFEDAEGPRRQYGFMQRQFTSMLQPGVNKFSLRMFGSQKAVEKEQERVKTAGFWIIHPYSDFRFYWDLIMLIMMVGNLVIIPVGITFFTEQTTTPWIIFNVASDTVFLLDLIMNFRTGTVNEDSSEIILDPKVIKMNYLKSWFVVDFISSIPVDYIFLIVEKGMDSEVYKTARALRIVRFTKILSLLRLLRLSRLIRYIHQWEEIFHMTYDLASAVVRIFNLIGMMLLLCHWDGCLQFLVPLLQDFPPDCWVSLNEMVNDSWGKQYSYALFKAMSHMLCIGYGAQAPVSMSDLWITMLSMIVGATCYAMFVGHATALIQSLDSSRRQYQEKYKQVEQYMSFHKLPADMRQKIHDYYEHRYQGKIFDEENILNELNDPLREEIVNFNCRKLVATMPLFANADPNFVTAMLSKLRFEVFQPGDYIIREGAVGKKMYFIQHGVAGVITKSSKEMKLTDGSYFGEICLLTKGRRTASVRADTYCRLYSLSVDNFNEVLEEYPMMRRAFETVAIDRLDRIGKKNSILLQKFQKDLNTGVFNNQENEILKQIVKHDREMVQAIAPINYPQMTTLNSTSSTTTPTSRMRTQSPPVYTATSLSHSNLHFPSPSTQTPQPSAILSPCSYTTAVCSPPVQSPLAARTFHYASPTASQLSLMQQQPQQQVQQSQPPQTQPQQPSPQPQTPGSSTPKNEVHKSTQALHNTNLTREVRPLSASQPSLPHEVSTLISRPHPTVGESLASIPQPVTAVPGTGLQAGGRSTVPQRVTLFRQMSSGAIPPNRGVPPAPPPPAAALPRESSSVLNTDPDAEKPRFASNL
Assay: Whole-cell patch-clamp functional assay for human HCN1 channel currents
Type: cell-based
Conditions: HEK293 cells expressing human HCN1, step to -120 mV from holding -40 mV
Procedure: Human HCN1 channel currents were detected under voltage-clamp using the whole-cell configuration of the patch-clamp technique. Appropriate cells (HEK293) expressing human HCN1 channel subunits were placed in a recording chamber containing extracellular solution (Sodium chloride 135 mM; Potassium chloride 5 mM; Calcium chloride 1.8 mM; Magnesium chloride 0.5 mM; HEPES 5 mM) at a temperature of 20-25 degrees centigrade. In some experiments the extracellular solution contained 30 mM Potassium chloride, in which cases the Sodium chloride concentration was reduced to 110 mM. […] The membrane current was recorded throughout the experiment. […] The membrane current was measured just after (1-10 milliseconds) the start of the hyperpolarising step and just before (10-100 milliseconds) its end. […] For each cell, the current amplitude was determined first in normal extracellular solution and then in extracellular solution containing caesium chloride (FIG. 3) or ZD 7288 (FIGS. 4 and 7). Alternatively, the effect of caesium chloride (5 mM) on human HCN1 channel currents was determined by measuring the current-voltage relationship in normal extracellular solution and also in extracellular solution containing caesium chloride (FIG. 6). […]

Row | SMILES | Effect on human HCN1 channel currents (ZD 7288 100 micromolar in extracellular solution) | Effect on human HCN1 channel currents (caesium chloride 5 mM in extracellular solution)
1 | CCN(c1ccccc1)c1cc(=NC)n(C)c(C)n1.Cl [ZD 7288] | reduced | 
2 | [Cl-].[Cs+] [caesium chloride] |  | reduced
